According to PubChem BioAssay (NCI):
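Cultured in 96-well plates, cells were exposed to test compound for 48 hours across five concentrations. GI50: concentration for 50% inhibition of growth. TGI: concentration producing complete growth inhibition.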

Assays:
Experiment in all cases: NCI anticancer screen, dose series, 48 h
[1] = tested on: 786-0 renal
[2] = tested on: OVCAR-3 ovarian
[3] = tested on: COLO 205 colon
[4] = tested on: EKVX NSCLC
[5] = tested on: NCI-H460 lung
[6] = tested on: SF-268 CNS
[7] = tested on: SK-MEL-28 melanoma
[8] = tested on: K-562 leukemia
[9] = tested on: HOP-62 NSCLC
[10] = tested on: CAKI-1 renal

| Structure (SMILES) | TGI [1] [µM] | TGI [2] [µM] | TGI [3] [µM] | TGI [4] [µM] | TGI [5] [µM] | TGI [6] [µM] | TGI [7] [µM] | TGI [8] [µM] | TGI [9] [µM] | TGI [10] [µM] | GI50 [1] [µM] | GI50 [2] [µM] | GI50 [3] [µM] | GI50 [4] [µM] | GI50 [5] [µM] | GI50 [6] [µM] | GI50 [7] [µM] | GI50 [8] [µM] | GI50 [9] [µM] | GI50 [10] [µM] |
| --- | --- | --- | --- | --- | --- | --- | --- | --- | --- | --- | --- | --- | --- | --- | --- | --- | --- | --- | --- | --- |
| O=[N+]([O-])C(=C1c2ccccc2-c2ccccc21)[N+](=O)[O-] | > 100 | > 100 | > 100 | > 100 | > 100 | 84.8 | > 100 | > 100 | > 100 | > 100 | – | – | – | – | – | – | – | – | – | – |
| CN(C)Cc1c[nH]c2nc[nH]c(=O)c12 | 76.4 | > 100 | > 100 | > 100 | 61 | > 100 | > 100 | 44.4 | > 100 | > 100 | – | – | – | – | – | – | – | – | – | – |
| CN(COC(=O)C(C)(C)C)c1nc(N(C)COC(=O)C(C)(C)C)nc(N(C)COC(=O)C(C)(C)C)n1 | > 100 | > 100 | 35.5 | > 100 | > 100 | > 100 | > 100 | > 100 | > 100 | > 100 | – | – | – | – | – | – | – | – | – | – |
| COc1ccc(/C(=N/O)c2cc(F)c(F)c(OC)c2F)cc1O | > 100 | 16.5 | 25.6 | > 100 | > 100 | > 100 | > 100 | > 100 | > 100 | > 100 | 10.5 | 0.345 | 5.46 | 0.714 | 0.402 | 0.839 | 10.8 | 0.271 | 0.502 | 0.538 |
| O=C1C=CC(=O)N1c1ccc2ccccc2c1 | 31.6 | 8.75 | 4.22 | 39.6 | 37.9 | 28.3 | 34 | > 100 | 31.1 | 17.8 | 17.2 | 3.23 | 2.01 | 17.9 | 17.5 | 14.5 | 16.8 | 3.45 | 16.2 | 4.65 |
| C=CC(=O)N1CCN(c2nc(OC[C@@H]3CCCN3C)nc3c(F)c(-c4nc(N)cc(C)c4C(F)(F)F)c(Cl)cc23)[C@@H](C)C1 | 15.3 | 3.14 | 3.5 | 4.8 | 5.39 | 3.19 | 3.21 | 8.92 | 13.1 | 2.95 | 3.6 | 1.66 | 1.86 | 1.98 | 2.29 | 1.59 | 1.75 | 2.47 | – | 1.51 |
| Cc1nc2sc(C(=O)Nc3cccc4c3OCCO4)c(N)c2cc1C(C)O (centres undefined) | > 100 | > 100 | > 100 | > 100 | > 100 | > 100 | > 100 | > 100 | > 100 | > 100 | 5 | 3.6 | 4.27 | > 100 | 3.58 | > 100 | > 100 | 1.37 | 5.35 | 4.91 |
| O=C(N/N=C/c1coc2ccc(Cl)cc2c1=O)c1cc(O)c(O)c(O)c1 | 66 | > 100 | > 100 | > 100 | > 100 | > 100 | > 100 | 55.6 | 89.4 | 70 | 23.4 | 40.4 | 55.7 | 27.1 | > 100 | > 100 | 65.7 | 15.2 | 38.8 | 25 |
| C[C@H]1CCC/C=C/[C@@H]2C[C@H](O)C[C@H]2[C@H](O)C(O)C(O)C(=O)O1 (some centres undefined) | > 100 | 20.1 | > 100 | > 100 | > 100 | > 100 | > 100 | > 23.6 | > 100 | 46 | 0.788 | 2.35 | 4.07 | 4.24 | 2.65 | 1.19 | 1.25 | 2.38 | 4.85 | 3.78 |
| O=C1c2ccccc2-n2c1nc1ccc([N+](=O)[O-])cc1c2=O | > 100 | 99.7 | > 100 | > 100 | > 100 | > 100 | > 100 | > 100 | > 100 | 99.7 | – | – | – | – | – | – | – | – | – | – |
| Cc1ccc(C)c(NC(=O)C(=O)C(C2C(C)CC(=O)C2CC(=O)O)[N+](=O)[O-])c1 (centres undefined) | > 100 | > 100 | > 100 | > 100 | > 100 | > 100 | > 100 | > 100 | > 100 | > 100 | – | – | – | – | – | – | – | – | – | – |
| O=C1c2c[n+](Cc3ccccc3)ccc2-c2nc3ccccc3c3ccnc1c23 | 2.76 | 1.87 | 1.11 | 4.79 | 0.499 | 3.66 | 3.95 | 7.83 | 0.817 | 9.37 | 0.829 | 0.379 | 0.409 | 1.28 | 0.0673 | 0.765 | 0.954 | 0.733 | 0.0569 | 1.2 |
| Oc1ccc(Br)cc1C=Nc1ccc(Oc2ccc(N=Cc3cc(Br)ccc3O)cc2)cc1 | > 19.6 | > 19.6 | > 19.6 | > 19.6 | > 19.6 | > 19.6 | > 19.6 | > 19.6 | > 19.6 | > 19.6 | – | – | – | – | – | – | – | – | – | – |
| O=C1/C(=C/c2ccccc2)CN(C(=O)/C=C/c2ccccc2)C/C1=C\c1ccccc1 | 8.27 | 24.7 | 19.4 | 50.1 | 39.3 | 38.7 | 21.4 | > 43.3 | 48.9 | 99.4 | – | – | – | – | – | – | – | – | – | – |
| Cc1ncc2c(n1)CCC1=C2OS(=O)(=O)CC1N(C)C (centres undefined) | > 100 | > 100 | > 100 | > 100 | > 100 | > 100 | > 100 | > 100 | > 100 | > 100 | – | – | – | – | – | – | – | – | – | – |
